How the values were obtained:
Assay type in all cases: cell-based
[1] = system: 32D cells transformed with IL-27R; assay: Cell growth and viability by trypan blue exclusion, JAK inhibitor I studies
Experimental: (§1) 32D cells were washed twice with RPMI containing 0.1% BSA and incubated in the same medium with either 0.1% DMSO, 0.5 μM or 2 μM JAK inhibitor I (EMD Biosciences/Calbiochem) for 3 hours before lysis. For cell growth and viability, cells were plated at a concentration of 2×10^5/ml in RPMI/10% FBS and either 0.1% DMSO or 0.5 μM JAK inhibitor I. Cell growth and viability were determined by trypan blue exclusion. After 24 hr of JAK inhibitor I treatment, the percentage of apoptotic cells and cell cycle profiles were determined by flow cytometry. See supporting information.
The role of JAK family kinases in transformation by IL-27R was addressed by culturing 32D/IL-27R transformed cells with the pan-JAK inhibitor, JAK inhibitor I (Thompson, J. E., et al., Photochemical preparation of a pyridone containing tetracycle: a Jak protein kinase inhibitor. Bioorg. Med. Chem. Lett., 2002 Apr. 22; 12(8):1219-23). Cells transformed with IL-27R were cultured in the presence of 0.1% DMSO or 0.5 μM JAK inhibitor I on day 0. […] Cell viability, determined using trypan blue, also decreases in the presence of the inhibitor, seen in FIG. 4(A). […] Transformed 32D cells were cultured in the presence of 0.1% DMSO (lane 2), 0.5 μM (lane 3) or 2 μM (lane 4) JAK inhibitor I. Control 32D cells starved of serum/IL-3 in the presence of 0.1% DMSO for three hr is shown in lane 1. […]

JAK family kinases = assay: Immunoblot of STAT1, STAT3, STAT5 and ERK1/2 phosphorylation induced by IL-27R; details: 0.5 μM or 2 μM, 3 hours, FIG. 5
Experimental: Cells were washed in PBS and lysed in lysis buffer (25 mM Tris pH7.4, 150 mM NaCl, 25 mM NaF, 1% Triton-X100, 1 mM sodium vanadate, 2 mM sodium pyrophosphate, 10 μg/ml leupeptin, 2 μg/ml aprotinin, and 1 mM PMSF). Protein concentrations were determined by BCA protein assay kit (Pierce Biotechnology), and equal amounts of protein were analyzed by SDS-PAGE. Primary antibodies used in this study include: IL-27R (TCCR) (C-term) (Sigma), phospho-(P-) STAT1(Y701), P-STAT3(Y705), P-JAK1(Y1022/1023), P-JAK2(Y1007/1008), P-ERK(T202/Y204), JAK1, JAK2 (Cell Signaling Technology), P-STAT5(Y694) (BD Transduction Laboratories), STAT1, STAT3, STAT5, and ERK1 (Santa Cruz Biotechnology). Immunoblots were developed using ECL Western Blotting Substrate (Pierce Biotechnology).
as §1, with “information. […]” for “information.”

[2] = system: 32D cells transformed with IL-27R; assay: Apoptosis by annexin V binding, flow cytometry; details: after 24 hr of treatment, FIG. 4(B)
Experimental: as §1
(§2) Flow Cytometry: Apoptosis and Cell Cycle Analysis. The percentage of apoptotic cells after 24 h JAK inhibitor I treatment was determined by flow cytometric analysis of annexin V-fluorescein (BD Biosciences) binding. […] Four-hundred microliters of 1× binding buffer was added to the samples and the cells were analyzed by flow cytometry. Flow cytometric analysis was performed on a FACS Scan instrument with CellQuest software (BD Biosciences) and data obtained were analyzed with FlowJo software (Tree Star). Cell cycle profiles after 24 h JAK inhibitor I treatment were determined by flow cytometric analysis of PI-stained cells. […] Stained cells were then analyzed by flow cytometry using a FACS Scan with CellQuest software and analyzed with FlowJo software (Tree Star). […]

[3] = system: 32D cells transformed with IL-27R; assay: Cell cycle profile by flow cytometry of PI-stained cells; details: after 24 hr of treatment, FIG. 3(B)
Experimental: as §1, §2

[4] = system: IL-27R-expressing 32D cells; assay: IL-27 stimulation, P-STAT1 immunoblot; details: 100 ng/ml IL-27, 10 min, cells lack gp130
Experimental: (§3) To stimulate cell cultures with IL-27, 32D and BaF3 cells expressing IL-27R were washed of growth factors and incubated in RPMI medium 1640 containing 0.1% BSA for 3 h. Cells were left untreated or stimulated with 100 ng/ml recombinant human IL-27 (R&D Systems) for 10 min. 293T cells were transfected with IL-27R, JAK2-V617F, and gp130 siRNA as indicated and as described. Two days later, cells were stimulated with 100 ng/ml human IL-27 for the length of time indicated and washed with ice-cold PBS, and cell lysates were prepared and analyzed by immunoblotting as described.
(§4) Finally, while IL-27R-mediated transformation is gp130-independent, these observations still support the paradigm that IL-27-mediated signaling requires gp130 (Pflanz, S., et al., J. Immunol., 2004 Feb. 15; 172(4):2225-31). […] Cells were left untreated or stimulated with 100 ng/ml IL-27 for 10 min and cell lysates analyzed by immunoblotting for phosphorylated (P-) and total STAT1. IL-27-induced signaling (as measured by STAT1 phosphorylation) is not observed in IL-27R-expressing 32D or BaF3 cells, which lack gp130, but is seen in IL-27R-expressing 293T cells, which express gp130, data not shown. […] Two days later, cells were stimulated with 100 ng/ml IL-27 for the length of time indicated, and cell lysates were prepared and analyzed by immunoblotting for P-STAT1, total STAT1, and gp130. […]

[5] = system: IL-27R-expressing BaF3 cells; assay: IL-27 stimulation, P-STAT1 immunoblot; details: 100 ng/ml IL-27, 10 min, cells lack gp130
Experimental: as §3, §4

[6] = system: IL-27R-expressing 293T cells; assay: IL-27 stimulation and gp130 siRNA depletion, P-STAT1 immunoblot
Experimental: as §3, §4

JAK inhibitor I
cell growth ([1]; 0.5 μM JAK inhibitor I vs 0.1% DMSO, from day 0, FIG. 3(A)): the growth of these cells ceases
cell viability ([1]; 0.5 μM JAK inhibitor I, trypan blue, FIG. 4(A)): decreases
ERK1/2 activation (JAK family kinases): prevents
STAT1, -3 and -5 phosphorylation induced by IL-27R (JAK family kinases): blocks
apoptosis (annexin V binding) [2]: induction of apoptosis
cell cycle arrest [3]: induces a G1 as well as a G2 cell cycle arrest
number of cells in S-phase [3]: dramatic decrease

B1: IL-27: recombinant human IL-27 (R&D Systems), cytokine used to stimulate cells (protein, UniProt Q8NEV9 29-243; Q14213 21-229, looked up)
Interleukin-27 subunit alpha: FPRPPGRPQLSLQELRREFTVSLHLARKLLSEVRGQAHRFAESHLPGVNLYLLPLGEQLPDVSLTFQAWRRLSDPERLCFISTTLQPFHALLGGLGTQGRWTNMERMQLWAMRLDLRDLQRHLRFQVLAAGFNLPEEEEEEEEEEEEERKGLLPGALGSALQGPAQVSWPQLLSTYRLLHSLELVLSRAVRELLLLSKAGHSVWPLGFPTLSPQP
Interleukin-27 subunit beta: RKGPPAALTLPRVQCRASRYPIAVDCSWTLPPAPNSTSPVSFIATYRLGMAARGHSWPCLQQTPTSTSCTITDVQLFSMAPYVLNVTAVHPWGSSSSFVPFITEHIIKPDPPEGVRLSPLAERQLQVQWEPPGSWPFPEIFSLKYWIRYKRQGAARFHRVGPIEATSFILRAVRPRARYYVQVAAQDLTDYGELSDWSLPATATMSLGK
IL-27-induced signaling (STAT1 phosphorylation) [4]: not observed
IL-27-induced signaling (STAT1 phosphorylation) [5]: not observed
IL-27R/JAK2-V617F-mediated activation of STAT1 ([6]; 100 ng/ml IL-27, 293T cells transfected with IL-27R and JAK2-V617F): not enhanced
IL-27-induced signaling (STAT1 phosphorylation) ([6]; 100 ng/ml IL-27, cells express gp130): is seen
